Patent US12708622B2, “Methods of treating cancer and inhibiting TYK2 and MEK” (Washington University, priority 2021, dated 2026)

Experiments:
[1] = test system: 2-009 cells; test: IncuCyte assay with YOYO-1 green fluorescence (apoptosis); format: cell-based; settings: over 3 days
Experimental: (§1) Cell confluence and apoptosis were analyzed by IncuCyte live cell imaging assays. Drug combination synergy was calculated using Synergy Finder software.

[2] = test system: JW23.3 cells; test: IncuCyte cell death assay with YOYO-1 green fluorescent dye (apoptosis); settings: 72 hours
Experimental: (§2) To gain further insight into the role of TYK2 in MPNST, the effect of pharmacologic inhibition of TYK2 was examined using IncuCyte Live Cell Imaging experiments for proliferation and cell death assay with YOYO-1 green fluorescent dye.
(§3) MPNST cell lines were plated at 2500 cells/well in 96 well plates in growth media and incubated overnight. […] Cells were imaged every 1-2 hours by IncuCyte Zoom Live-Cell Analysis System (Essen Bioscience, Sartorius, Ann Arbor, MI). Cell proliferation was determined as percent confluence from phase images and was analyzed by IncuCyte image analysis software (Sartorius). For cell death assays, 50 nmol/L YOYO-1 green fluorescent dye (Thermo Fisher) was added to treatment medium, and apoptosis was calculated as green objects normalized to the confluency factor and the initial timepoint. IC50 values were calculated in GraphPad Prism version 9 (GraphPad Software, San Diego, CA).

[3] = test system: 2-009 cells; test: IncuCyte live cell imaging assay (cell confluence); format: cell-based; settings: over 3 days
Experimental: as §1

[4] = test system: JW23.3 cells; test: IncuCyte live cell proliferation assay (percent cell confluence); format: cell-based, murine
Experimental: as §2, §3

[5] = test system: WU-356 cells; test: as above; format: cell-based, human; settings: 3 days
Experimental: as §2
(§4) MPNST cell lines were plated at 2500 cells/well in 96 well plates in growth media and incubated overnight. […] Cells were imaged every 1-2 hours by IncuCyte Zoom Live-Cell Analysis System (Essen Bioscience, Sartorius, Ann Arbor, MI). Cell proliferation was determined as percent confluence from phase images and was analyzed by IncuCyte image analysis software (Sartorius). […] IC50 values were calculated in GraphPad Prism version 9 (GraphPad Software, San Diego, CA).

[6] = test system: WU-386 MPNST xenograft; test: MPNST xenograft tumor growth in NRG mice; settings: WU-386 in NRG mice; daily oral gavage; single agents
[7] = test system: JW23.3 MPNST xenograft tumors; test: MPNST tumor growth in immunocompetent C57BL6 mice; settings: JW23.3 in immunocompetent mice; daily oral gavage; 1.5 mg/kg deucravacitinib, 30 mg/kg mirdametinib (FIG. 10 legend)
[8] = test system: JH-2-002 cells; test: IncuCyte live cell proliferation assay (percent cell confluence)
Experimental: as §2, §3

[9] = test system: JAK1-3; settings: at clinically relevant doses; cited from earlier work
[10] = test system: WU-386 cells; test: IncuCyte live cell proliferation assay (percent cell confluence); format: cell-based, human; settings: 3 days
Experimental: as §2, §4

[11] = test system: JW23.3, JH-2-002, WU-356 and WU-386 cells; test: IncuCyte cell confluence IC50 across the MPNST cell line panel; format: cell-based, murine and human; settings: 72 h, 3 days, read-out: IC50 for inhibition of cell confluence, range over cell lines
Experimental: as §4

[12] = Mouse body weight and health in the MPNST tumor models; design: species or system mice; settings: in vivo
Experimental: . […] Mouse body weight, an indicator of health, was measured 2-3 times per week.

| SMILES | apoptosis [1] | apoptosis [2] | cell confluence [3] | percent cell confluence ([4]; JW23.3 cells, 72 hours) | proliferation (cell confluence) ([5]; WU-356 cells) | tumor size [6] | tumor volume relative to vehicle control [7] | percent cell confluence / proliferation ([8]; JH-2-002 cells, 72 hours) | block of JAK1-3 [9] | proliferation (cell confluence) ([10]; WU-386 cells) | IC50 ([4]; Mus musculus, 72 h, read-out: IC50 for inhibition of cell confluence) [nM] | IC50 ([5]; Homo sapiens, 72 h, WU-356 MPNST cell line, IncuCyte, read-out: IC50 for inhibition of cell confluence) [nM] | IC50 [11] [nM] | IC50 ([8]; Homo sapiens, 72 h, read-out: IC50 for inhibition of cell confluence) [nM] | mouse body weight / adverse health effects [12] | IC50 ([10]; Homo sapiens, 72 h, WU-386 MPNST cell line, IncuCyte, read-out: IC50 for inhibition of cell confluence) [nM] |
| --- | --- | --- | --- | --- | --- | --- | --- | --- | --- | --- | --- | --- | --- | --- | --- | --- |
| N#Cc1cc(F)c(C(=O)Nc2ccnc(NC(=O)C3C[C@H]3F)c2)c(Cl)c1 (stereo partly drawn) [TC-JL-37] | increased apoptosis | increased apoptosis | decreased cell confluence | decreased cell confluence | – | – | – | – | – | – | – | – | – | – | – | – |
| [2H]C([2H])([2H])NC(=O)c1nnc(NC(=O)C2CC2)cc1Nc1cccc(-c2ncn(C)n2)c1OC [deucravacitinib] | – | – | – | – | inhibited proliferation | non-significant trend toward decreased tumor size | nearly half the volume of vehicle control | inhibited proliferation | does not block JAK1-3 at clinically relevant doses | inhibited proliferation | 6760 | – | – | – | – | – |
| O=C(NOC[C@H](O)CO)c1ccc(F)c(F)c1Nc1ccc(I)cc1F [mirdametinib] | – | – | – | – | – | non-significant trend toward decreased tumor size | nearly half the volume of vehicle control | – | – | – | – | 1330 | 220 to 1330 | 220 | did not significantly decrease mouse body weight | 1060 |
